The data set in a line: Dissolution testing of IBU-loaded mesoporous particles (USP I rotating basket). The format is physicochemical. Particulars: after 120 mins; pH 3.0 medium + 0.25% SLS, 900 mL, 37° C., 100 rpm, 50 mg IBU in HPMC capsule. The protocol: Testing conditions: HCL-NaCl medium pH 3+0.25% SLS, 900 mL, USP apparatus 1 (rotating basket), 100 rpm, HPLC method (mobile phase: pH 3 phosphate buffer:acetonitrile (60:40); column: C18, 15 cm×4.6 mm, 5 μm; flow rate: 2 mL/min; injection volume: 20 μL; detector: UV, 254 nm).
Dissolution testing of IBU-loaded mesoporous particles as prepared in Example 4 was performed by using USP I apparatus (rotating basket, 100 rpm) in an Erweka DT 126 dissolution tester. Samples containing 50 mg of IBU were loaded into a HPMC hard-shell capsule and tested in 900 mL of pH 3.0 medium with 0.25% SLS at 37° C. The pH 3 medium was prepared by dissolving 2 g of sodium chloride and 2.5 g of SLS in 400 mL of deionised water, then adding 0.1 mL of hydrochloric acid 37%, and diluting with deionised water to 1000.0 mL. The concentrations of dissolved IBU were determined using a HPLC method with mobile phase of phosphate buffer pH 3: acetonitrile (60:40), C18 column (15 cm×4.6 mm, 5 μm), flow rate of 2 mL/min, injection volume of 20 μL, and UV detector at 254 nm in an Agilent 1200 HPLC system.

Each structure is given as a SMILES string.

Turning to `CC(C)Cc1ccc(C(C)C(=O)O)cc1` (stereo not shown) [Ibuprofen raw material, Ibuprofen], the Ibuprofen dissolved was 73.4%.

These data come from patent US20220354791A1, “MESOPOROUS POLYMERIC PARTICULATE MATERIAL” (Aston University, priority 2019, published 2022).
